Target: T1, human NaV 1.8 (Homo sapiens, UniProt Q9Y5Y9)
T1 construct: expressed in transfected cells; host or cells: HEK (recombinant cell line)
Assay: Automated whole-cell patch clamp (Qube384) voltage-clamp recordings of sodium currents in HEK-NaV1.8 cell line
Format: cell-based
Conditions: read-out: Potency category (human NaV 1.8 IC50)
Experimental: Electrophysiology: Voltage-Clamp Recordings
The following NaV1.8 recombinant cell line was used for recordings: HEK-NaV1.8 (NM_006514.1) with b3 (NM_018400.3).
Sodium currents were measured using the patch clamp technique in the whole-cell configuration using the Qube384 (Sophion A/S, Copenhagen, Denmark) automated voltage clamp platform. “Multi hole” plates were used for the cell line expressing NaV1.8 while “single hole” plates were used for the recombinant cell lines expressing the other subtypes. Appropriate filters (for minimum seal resistance and minimum current size) and series resistance compensation (for high quality sodium channel recordings) were applied. Data was collected at ambient room temperature or 19° C.
The recording extracellular solution contained (in mM): NaCl 145 mM, KCl 4 mM, CaCl2 2 mM, MgCl2 1 mM, HEPES 10 mM, Glucose 10 mM, pH 7.4 (NaOH). The intracellular recording solution contained (in mM): CsF 120 mM, CsCl 20 mM, NaCl 10 mM, EGTA 10 mM, HEPES 10 mM, pH 7.2 (CsOH). Currents were recorded at 25 kHz sampling frequency and filtered at 5 kHz. Series resistance compensation was applied at 65%.
Vehicle (VEH) is the control condition where cells are exposed to 0.3% DMSO without compound. All runs include VEH controls being exposed to the same voltage protocols to assess non-compound related phenomena such as run down and then used to isolate compound dependent effects on currents.
To check for state-dependent inhibition, the following voltage-sequence was applied every 20 seconds:
From a resting membrane potential of −120 mV, the first test pulse (P1; 20 ms to −10 mV) was applied to check for channels in the Resting State followed by a brief recovery (100 ms to −120 mV), then holding the membrane voltage to V1/2 (4 seconds at voltage to obtain half the channel at Rest and half Inactivated) with a subsequent second test pulse (P2; 20 ms to −10 mV) to check for channels in the Inactivated State, followed by another brief recovery (20 ms to −120 mV) and a final third test pulse (P3; 20 ms to −10 mV) to check for recovered channels.
To check for frequency-dependent inhibition, a 10 Hz protocol and a 20 Hz protocol were applied; namely,
From a resting membrane potential of −120 mV, 40-pulses (10 ms to −10 mV) was applied at 10 Hz (at 100 ms between pulses) and then at 20 Hz (at 50 ms between pulses).
Each parameter was recorded (P1, P2, P3, P40 from 10 Hz and P40 from 20 Hz) during a control period (lasting 5 minutes) when establishing the baseline and during compound period (lasting ~12 minutes) when test compound (or vehicle) was applied. For each parameter, the value at the end of the compound period was normalized to the vehicle baseline; as follows
To adjust for any variance in the Na^+ current signal during the compound period (owing to cumulative inactivation independent of compound or shifts in biophysics over time), a dedicated segment of the recording wells in each 384 plate were dedicated to having only vehicle exposure. These vehicle-only recordings were used to correct for any apparent “run-up” or “run-down” in the experiment.
The adjusted inhibition was calculated as follows: […]
Percent inhibition was determined and IC50 values were calculated using a 4 parameter logistic model within XLFit Software (IDBS, Boston MA): F
[formula] where A and B are the maximal and minimum inhibition respectively, C is the IC50 concentration and D is the (Hill) slope.

T1 sequence (Q9Y5Y9 whole entry): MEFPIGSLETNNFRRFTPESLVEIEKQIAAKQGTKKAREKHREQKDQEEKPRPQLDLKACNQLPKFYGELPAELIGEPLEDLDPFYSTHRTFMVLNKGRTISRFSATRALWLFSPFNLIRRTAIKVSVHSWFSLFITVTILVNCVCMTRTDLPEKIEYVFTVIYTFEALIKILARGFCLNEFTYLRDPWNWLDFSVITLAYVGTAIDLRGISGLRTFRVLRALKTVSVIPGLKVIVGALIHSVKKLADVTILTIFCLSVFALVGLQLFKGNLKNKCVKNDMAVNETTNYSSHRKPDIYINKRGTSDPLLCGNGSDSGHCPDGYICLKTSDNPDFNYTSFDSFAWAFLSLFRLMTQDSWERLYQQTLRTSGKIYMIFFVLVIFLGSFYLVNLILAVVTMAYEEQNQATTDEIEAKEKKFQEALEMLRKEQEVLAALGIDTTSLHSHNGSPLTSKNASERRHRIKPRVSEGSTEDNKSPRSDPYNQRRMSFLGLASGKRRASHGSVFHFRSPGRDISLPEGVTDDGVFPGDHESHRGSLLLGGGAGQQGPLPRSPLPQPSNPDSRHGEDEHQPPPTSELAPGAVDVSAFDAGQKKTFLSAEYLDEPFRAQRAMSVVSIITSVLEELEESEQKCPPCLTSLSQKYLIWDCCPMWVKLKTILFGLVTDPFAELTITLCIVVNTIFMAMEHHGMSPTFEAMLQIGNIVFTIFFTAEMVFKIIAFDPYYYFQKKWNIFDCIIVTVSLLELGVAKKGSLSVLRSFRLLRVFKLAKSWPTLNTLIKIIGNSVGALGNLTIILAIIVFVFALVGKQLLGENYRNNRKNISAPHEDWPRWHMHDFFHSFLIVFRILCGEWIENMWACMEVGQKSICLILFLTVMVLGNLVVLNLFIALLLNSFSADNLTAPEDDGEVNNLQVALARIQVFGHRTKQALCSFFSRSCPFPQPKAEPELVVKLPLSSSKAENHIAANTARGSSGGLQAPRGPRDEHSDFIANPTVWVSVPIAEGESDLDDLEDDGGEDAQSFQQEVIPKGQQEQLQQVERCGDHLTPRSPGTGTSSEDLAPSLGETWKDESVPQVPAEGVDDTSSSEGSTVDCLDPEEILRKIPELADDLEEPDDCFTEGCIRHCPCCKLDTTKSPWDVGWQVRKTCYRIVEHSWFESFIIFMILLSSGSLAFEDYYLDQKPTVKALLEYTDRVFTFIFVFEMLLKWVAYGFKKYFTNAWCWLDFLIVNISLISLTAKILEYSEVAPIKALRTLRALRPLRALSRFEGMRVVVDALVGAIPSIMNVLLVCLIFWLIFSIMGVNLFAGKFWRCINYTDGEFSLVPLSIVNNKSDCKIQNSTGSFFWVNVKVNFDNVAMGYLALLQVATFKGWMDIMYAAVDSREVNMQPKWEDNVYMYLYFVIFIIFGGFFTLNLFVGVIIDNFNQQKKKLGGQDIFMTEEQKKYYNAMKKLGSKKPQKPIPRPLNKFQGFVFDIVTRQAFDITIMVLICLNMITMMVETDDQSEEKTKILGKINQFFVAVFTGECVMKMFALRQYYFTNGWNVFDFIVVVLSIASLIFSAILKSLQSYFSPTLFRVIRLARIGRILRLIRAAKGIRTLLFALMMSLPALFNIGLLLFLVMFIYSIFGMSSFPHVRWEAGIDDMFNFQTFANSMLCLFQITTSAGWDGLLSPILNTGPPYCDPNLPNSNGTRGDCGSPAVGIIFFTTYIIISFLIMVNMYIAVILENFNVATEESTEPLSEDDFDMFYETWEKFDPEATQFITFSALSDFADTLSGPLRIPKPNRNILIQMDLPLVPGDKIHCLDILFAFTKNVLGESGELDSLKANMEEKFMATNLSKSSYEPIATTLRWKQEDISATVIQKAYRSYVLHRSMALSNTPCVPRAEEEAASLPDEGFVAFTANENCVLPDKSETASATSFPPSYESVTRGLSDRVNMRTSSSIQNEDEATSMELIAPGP

SMILES	IC50
CC1(Cn2nc(C3CC3)c(C(F)(F)F)c2C(=O)Nc2cccc(S(C)(=N)=O)c2)CC(F)(F)C1 (single isomer, unassigned) [Example 45a, 3-cyclopropyl-1-((3,3-difluoro-1-methylcyclobutyl)methyl)-N-(3-(S-methylsulfonimidoyl)phenyl)-4-(trifluoromethyl)-1H-pyrazole-5-carboxamide]	≤ 0.1 µM
C[C@H]1C[C@@H]1c1nn(CC2(C)CC(F)(F)C2)c(C(=O)Nc2ccnc([S@](C)(=N)=O)c2)c1C(F)(F)F (single isomer, unassigned) [Example 65a, 1-((3,3-Difluoro-1-methylcyclobutyl)methyl)-3-((trans)-2-methylcyclopropyl)-N-(2-(S-methylsulfonimidoyl)pyridin-4-yl)-4-(trifluoromethyl)-1H-pyrazole-5-carboxamide]	≤ 0.1 µM
CC1(Cn2nc(C3(F)CC3)c(C(F)(F)F)c2C(=O)Nc2cccc(S(C)(=N)=O)c2)CC(F)(F)C1 (single isomer, unassigned) [Example 109b, 1-((3,3-Difluoro-1-methylcyclobutyl)methyl)-3-(1-fluorocyclopropyl)-N-(3-(S-methylsulfonimidoyl)phenyl)-4-(trifluoromethyl)-1H-pyrazole-5-carboxamide]	≤ 0.1 µM
CS(=N)(=O)c1cc(NC(=O)c2c(C(F)(F)F)c(OC(F)F)nn2CC2CCC(F)(F)C2)ccn1 (stereo not drawn) [Example 33, 1-((3,3-Difluorocyclopentyl)methyl)-3-(difluoromethoxy)-N-(2-(S-methylsulfonimidoyl)pyridin-4-yl)-4-(trifluoromethyl)-1H-pyrazole-5-carboxamide]	≤ 0.1 µM
CC1(Cn2nc(C34CC(F)(C3)C4)c(C(F)(F)F)c2C(=O)Nc2cccc(S(C)(=N)=O)c2)CC(F)(F)C1 (single isomer, unassigned) [Example 111a, 1-((3,3-difluoro-1-methylcyclobutyl)methyl)-3-(3-fluorobicyclo[1.1.1]pentan-1-yl)-N-(3-(S-methylsulfonimidoyl)phenyl)-4-(trifluoromethyl)-1H-pyrazole-5-carboxamide]	≤ 0.1 µM
Cc1c(C(C)(F)F)nn(CC2(C)CCC(F)(F)CC2)c1C(=O)Nc1ccnc(S(C)(=N)=O)c1 (single isomer, unassigned) [Example 11b, 1-((4,4-difluoro-1-methylcyclohexyl)methyl)-3-(1,1-difluoroethyl)-4-methyl-N-(2-(S-methylsulfonimidoyl)pyridin-4-yl)-1H-pyrazole-5-carboxamide]	≤ 0.1 µM
CC1(Cn2nc(C34CC(F)(C3)C4)c(C(F)F)c2C(=O)Nc2ccc(F)c(S(C)(=N)=O)c2)CC(F)(F)C1 (single isomer, unassigned) [Example 138a, 1-((3,3-Difluoro-1-methylcyclobutyl)methyl)-4-(difluoromethyl)-N-(4-fluoro-3-(S-methylsulfonimidoyl)phenyl)-3-(3-fluorobicyclo[1.1.1]pentan-1-yl)-1H-pyrazole-5-carboxamide]	≤ 0.1 µM
CC1(Cn2nc(C3(F)CC3)c(C(F)F)c2C(=O)Nc2ccc(F)c(S(C)(=N)=O)c2)CC(F)(F)C1 (single isomer, unassigned) [Example 133b, 1-((3,3-Difluoro-1-methylcyclobutyl)methyl)-4-(difluoromethyl)-N-(4-fluoro-3-(S-methylsulfonimidoyl)phenyl)-3-(1-fluorocyclopropyl)-1H-pyrazole-5-carboxamide]	≤ 0.1 µM
C[S@](=N)(=O)c1cccc(NC(=O)c2c(C(F)(F)F)c(C3(F)CC3)nn2CC2C[C@@H]2C(F)(F)F)c1 (single isomer, unassigned) [Example 134b, 3-(1-Fluorocyclopropyl)-N-(3-(S-methylsulfonimidoyl)phenyl)-4-(trifluoromethyl)-1-(((trans)-2-(trifluoromethyl)cyclopropyl)methyl)-1H-pyrazole-5-carboxamide]	≤ 0.1 µM
CC1(Cn2nc(C3(C)CC3)c(C(F)(F)F)c2C(=O)Nc2ccnc(S(C)(=N)=O)c2)CC(F)(F)C1 (single isomer, unassigned) [Example 69a, 1-((3,3-difluoro-1-methylcyclobutyl)methyl)-3-(1-methylcyclopropyl)-N-(2-(S-methylsulfonimidoyl)pyridin-4-yl)-4-(trifluoromethyl)-1H-pyrazole-5-carboxamide]	≤ 0.1 µM
C[S@@](=N)(=O)c1cc(NC(=O)c2c(C(F)(F)F)c(C3CC3)nn2C[C@@H]2CC23CC3)ccn1 (single isomer, unassigned) [Example 78a, 3-cyclopropyl-N-(2-(S-methylsulfonimidoyl)pyridin-4-yl)-1-(spiro[2.2]pentan-1-ylmethyl)-4-(trifluoromethyl)-1H-pyrazole-5-carboxamide]	≤ 0.1 µM
C[S@](=N)(=O)c1cc(NC(=O)c2c(C(F)(F)F)c(C3CC3)nn2C[C@]2(C)C[C@@H](C(F)(F)F)C2)ccn1 (single isomer, unassigned) [Example 86d, 3-cyclopropyl-1-(((cis)-1-methyl-3-(trifluoromethyl)cyclobutyl)methyl)-N-(2-(S-methylsulfonimidoyl)pyridin-4-yl)-4-(trifluoromethyl)-1H-pyrazole-5-carboxamide]	≤ 0.1 µM

Results, then the molecule that gave them:

IC50	SMILES
≤ 0.1 µM	CS(=N)(=O)c1cc(NC(=O)c2c(C(F)(F)F)c(C3CC3)nn2CC2CCC(F)(F)C2)ccn1 (single isomer, unassigned) [Example 7b, 3-cyclopropyl-1-((3,3-difluorocyclopentyl)methyl)-N-(2-(S-methylsulfonimidoyl)pyridin-4-yl)-4-(trifluoromethyl)-1H-pyrazole-5-carboxamide]
≤ 0.1 µM	Cc1c(C(C)(F)F)nn(CC2(C)CCC(F)(F)CC2)c1C(=O)Nc1ccnc(S(C)(=N)=O)c1 (single isomer, unassigned) [Example 11a, 1-((4,4-difluoro-1-methylcyclohexyl)methyl)-3-(1,1-difluoroethyl)-4-methyl-N-(2-(S-methylsulfonimidoyl)pyridin-4-yl)-1H-pyrazole-5-carboxamide]
0.1 to 1 µM	CC(=O)N1CC2(CCC2Cn2nc(C3CC3)c(C(F)(F)F)c2C(=O)Nc2ccnc(S(C)(=N)=O)c2)C1 (single isomer, unassigned) [Example 140a, 1-((2-Acetyl-2-azaspiro[3.3]heptan-5-yl)methyl)-3-cyclopropyl-N-(2-(S-methylsulfonimidoyl)pyridin-4-yl)-4-(trifluoromethyl)-1H-pyrazole-5-carboxamide]
≤ 0.1 µM	CS(=N)(=O)c1cc(NC(=O)c2c(C(F)(F)F)c(C3CC3)nn2CC23CC(C(F)(F)F)(C2)C3)ccn1 (single isomer, unassigned) [Example 23a, 3-cyclopropyl-N-(2-(S-methylsulfonimidoyl)pyridin-4-yl)-4-(trifluoromethyl)-1-((3-(trifluoromethyl)bicyclo[1.1.1]pentan-1-yl)methyl)-1H-pyrazole-5-carboxamide]
≤ 0.1 µM	CC1(Cn2nc(C3CC3)c(C(F)(F)F)c2C(=O)Nc2ccnc(S(C)(=N)=O)c2)CCC(F)(F)C1 (single isomer, unassigned) [Example 29b, 3-Cyclopropyl-1-((3,3-difluoro-1-methylcyclopentyl)methyl)-N-(2-(S-methylsulfonimidoyl)pyridin-4-yl)-4-(trifluoromethyl)-1H-pyrazole-5-carboxamide]
≤ 0.1 µM	CC1(Cn2nc(C3(F)CC3)c(C(F)F)c2C(=O)Nc2cccc(S(C)(=N)=O)c2)CC(F)(F)C1 (single isomer, unassigned) [Example 135a, 1-((3,3-Difluoro-1-methylcyclobutyl)methyl)-4-(difluoromethyl)-3-(1-fluorocyclopropyl)-N-(3-(S-methylsulfonimidoyl)phenyl)-1H-pyrazole-5-carboxamide]

— patent US12685726B2, “Sulfoximines as inhibitors of NaV1.8” (Gruenenthal GmbH, priority 2022, dated 2026)
